One data set has as its target FMC63 IgG. Briefly: ELISA of N-terminally biotinylated F12 variants on streptavidin plate, binding to FMC63 IgG. The arrangement: species or system mouse. The settings on record: read-out: Kd (nM), FMC63 binding affinity of F12 variants with N-terminal flanking residues. Background: In an ELISA, binding on a coated surface is turned into a signal by an enzyme label.
For another data set, the system named is FMC63 CAR T cells. Briefly: In vivo CAR T cell proliferation in lymph nodes after amph-mimotope vaccination (cell trace violet dilution). The arrangement: species or system mice. The settings on record: inguinal LNs 48 hours post-vaccination; s.c. tail base with 25 μg cyclic-di-GMP; 10 ug monovalent or 20 ug bivalent. The protocol:
FIG. 18A depicts a timeline for administration of CD45.1+ donor FMC63 CAR T cells to CD45.2+ recipient mice on Day 0, followed by administration of amph-mimotope or bivalent amph-mimotope on Day 1, and analysis of CAR T cell proliferation in lymph nodes harvested on Day 3 measured by cell trace violet dilution.
FIG. 18B provides histograms measuring the proliferation of FMC63 CAR T cells isolated from mice on Day 3 as depicted in FIG. 18A. The mice were administered amph-mimotope containing a mimotope with the sequence set forth in SEQ ID NO: 128 or 129 (Amph-K-A1 or Amph-K-C2 respectively) or the bivalent mimotopes depicted in FIG. 17C (amph-bi-F12-peg8 or amph-bi-F12-peg4). Control mice were administered no amph-mimotope.
CD45.1^+ donor FMC63 CAR T cells were prepared as described in Example 3 and labeled with cell trace violet according to manufacturer's protocol. 2×10^6 CAR T cells were administered into CD45.2^+ recipient mice via tail vein injection on Day 0. The following day, recipient mice were vaccinated by subcutaneous injection at the tail base with the following vaccine formulation: • (i) 10 ug of monovalent amph-mimotope (Amph-K-A1 or Amph-K-C2)+25 μg of cyclic-di-GMP in 1×PBS; or • (ii) 20 ug of amph-Bi-F12-mimotope (PEG4 or PEG8)+25 μg of cyclic-di-GMP in 1×PBS. […]

The test system of a further data set is FMC63 scFv. In words: Dissociation kinetics of FMC63 scFv from yeast clones (flow cytometry). The class given is binding, mouse. Conditions: yeast clones labeled, washed, incubated 0-72 hours. The protocol:
The yeast clones were labeled with the scFv, washed, and incubated for 0-72 hours as indicated prior to analysis.
The dissociation kinetics following binding of the mimotopes to FMC63 were also investigated. […] The yeast were then washed, and incubated for 0-72 hours prior to analysis of the degree of FMC63 scFv labeling by flow cytometry.

The next data set concerns FMC63. Briefly: FMC63 binding of mimotope-expressing yeast after DTT treatment (flow cytometry). More on the design: species or system mouse. Conditions: DTT 0.01-10 mM, 30 minutes, room temperature; yeast-displayed. The protocol:
To determine the formation of an intra-peptidyl disulfide bridge formed by the two Cys residues, mimotope expressing yeast were treated in reducing conditions and binding of the mimotope to FMC63 IgG was measured. […] Similarly, control cells expressing Aga2p (connected to the yeast surface by disulfide bridge) were treated with DTT. Following treatment, cells were labelled with biotinylated Aga2p or FMC63 and binding was measured by flow cytometry. At mild reducing conditions, Aga2p was maintained on the yeast surface while mimotope binding to FMC63 was abolished (FIG. 6). The inhibition of mimotope binding to FMC63 following treatment with a reducing agent reaffirms the formation of the disulfide bond and its importance for binding.
A general note: A flow cytometer gives signals particle by particle.

In a further data set the test system is FMC63 IgG antibody. In words: Alanine scanning mutagenesis, flow cytometry binding to FMC63 IgG. The arrangement: species or system mouse. The settings on record: yeast stained with 5 μM FMC63 IgG antibody. The protocol:
FIG. 11 provides a graph showing flow cytometry analysis of alanine scanning mutagenesis for […] (SEQ ID NO: 16) where each amino acid position was mutated to an alanine, or additional alanine residues (one or two) were added. Flow cytometry analysis was performed to evaluate binding to the FMC63 IgG antibody.
To determine the effect of amino acid position on binding to FMC63, an alanine mutagenesis experiment was performed were each amino acid was mutated to alanine and binding to FMC63 was assessed. Specifically, a representative mimotope, […] (SEQ ID NO: 16), was mutated at each amino acid position to generate an alanine (SEQ ID NOs: 54-63) (Table 7). To assess the tolerance of additional alanine residues, one alanine or two alanine residues were inserted between the two cysteine residues (SEQ ID NOs: 52 and 53) to determine the impact the loop structure had on mimotope binding to FMC63. To generate mutations, two complementary oligos with the codon replaced at the desired site were denatured at 95° C. and annealed by slow cooling to 25° C. (decreasing by 0.5° C./second). The annealed oligos were treated with T4 PNK (T4 Polynucleotide Kinase) to add a terminal phosphate, and then ligated into digested pCT-CON2 vector. Positive clones having the correct oligo inserted were tested and transformed into competent EBY100 yeast cells. […]

The test system of data set [1] is FMC63 anti-hCD19 CAR-T cells. Briefly: IFNγ secretion of CAR-T cells co-cultured with amph-mimotope coated K562 cells (ELISA). Format: cell-based. Conditions: K562 coated with 10 μM amph-mimotope, E:T 10:1, 24 hours; compared to amphiphile only control. The protocol:
ID NO: 5) at 10 μM and incubated at 37° C. for 30 minutes. The labeling reaction was stopped by pelleting cells and washing with PBS. To mimic antigen presenting cells in lymph nodes, K562 cells were decorated with amph-mimotope, and then co-cultured at an effector to target (E:T) ratio of 10:1 with FMC63 expressing CAR-T cells (hCD19-CAR; SEQ ID NO: 78) for 24 hours. The hCD19-CAR was generated in part from a previously reported CAR (Pegram, H., et al. (2012) Blood 119:18 (4133-4141) and is composed of a human CD8 signal peptide (SEQ ID NO: 87), FMC63 scFV (SEQ ID NO: 70), murine CD8 hinge (SEQ ID NO: 74), a murine CD8 transmembrane domain (SEQ ID NO: 75), a murine CD28 costimulatory domain (SEQ ID NO: 76) and a murine CD3ζ intracellular domain (SEQ ID NO: 77). The overall CAR is provided in SEQ ID NO: 78. After co-culture, cells were pelleted at 2,000×g for 5 minutes, and the supernatant was harvested for IFNγ ELISA and processed following the manufacturer's protocol (Human IFNγ ELISA MAXTM Deluxe (Biolegend)).

Data set [2] is described as follows: Micelle stability of lipid-oligonucleotide conjugates in presence of serum. The class given is physicochemical. Conditions: for percentage of intact micelles: micelles formed in aqueous solution, in the presence of serum (FBS); for micelle stability on increasing number of guanines: in the presence of serum, compared with lipo-G6T4-CG. The protocol:
For example, in certain embodiments, a plurality of lipid conjugates is allowed to spontaneously form micelles in aqueous solution. The micelles are incubated with albumin, or a solution including albumin such as Fetal Bovine Serum (FBS). Samples can be analyzed, for example, by ELISA, size exclusion chromatography or other methods to determine if binding has occurred. Lipid conjugates can be selected as lymph node-targeting conjugates if in the presence of albumin, or a solution including albumin such as Fetal Bovine Serum (FBS), the micelles dissociate and the lipid conjugates bind to albumin as discussed above.
In certain embodiments, the linker is one or more guanines, for example between 1-10 guanines. It has been discovered that altering the number of guanines between a cargo such as a CpG oligonucleotide, and a lipid tail controls micelle stability in the presence of serum proteins. Therefore, the number of guanines in the linker can be selected based on the desired affinity of the conjugate for serum proteins such as albumin. When the cargo is a CpG immunostimulatory oligonucleotide and the lipid tail is a diacyl lipid, the number of guanines affects the ability of micelles formed in aqueous solution to dissociate in the presence of serum: 20% of the non-stabilized micelles (lipo-G0T10-CG) (SEQ ID NO: 138) were intact, while the remaining 80% were disrupted and bonded with FBS components.

Bridge positions count the residues as written; N and C are the ends. Ends that are not written are not given here. Peptide text beside a SMILES is read from it. * marks the point of attachment. Biotin = O=C1N[C@H]2[C@H](CS[C@H]2CCCCC(=O)*)N1 Bounds are passed on as bounds.

FMC63 IgG antibody, sequence (as listed by the source): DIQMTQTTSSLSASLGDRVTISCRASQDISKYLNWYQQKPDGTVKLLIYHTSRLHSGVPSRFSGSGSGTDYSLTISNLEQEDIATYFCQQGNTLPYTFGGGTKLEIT
FMC63 IgG antibody, sequence (as listed by the source): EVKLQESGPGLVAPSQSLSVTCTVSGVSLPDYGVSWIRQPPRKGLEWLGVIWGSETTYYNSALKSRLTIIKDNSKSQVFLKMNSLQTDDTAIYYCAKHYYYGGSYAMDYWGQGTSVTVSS
FMC63 scFv, sequence (as listed by the source): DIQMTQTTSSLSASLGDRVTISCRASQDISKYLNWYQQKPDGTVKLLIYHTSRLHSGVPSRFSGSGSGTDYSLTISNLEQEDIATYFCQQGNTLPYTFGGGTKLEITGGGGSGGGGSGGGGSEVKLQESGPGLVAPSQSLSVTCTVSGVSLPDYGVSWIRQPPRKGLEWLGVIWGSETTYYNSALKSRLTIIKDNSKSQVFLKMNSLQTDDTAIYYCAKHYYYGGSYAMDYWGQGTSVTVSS

For `CC[C@H](C)[C@H](NC(=O)[C@H](CCCNC(=N)N)NC(=O)[C@H](CO)NC(=O)[C@H](C)NC(=O)[C@H](CO)NC(=O)CCCC[C@@H]1SC[C@@H]2NC(=O)N[C@@H]21)C(=O)N[C@H]1CSSC[C@@H](C(=O)N[C@@H](CCCCN)C(=O)N[C@@H](CCC(=O)O)C(=O)N[C@@H](CC(C)C)C(=O)O)NC(=O)[C@H](CC(N)=O)NC(=O)[C@H](Cc2c[nH]c3ccccc23)NC(=O)[C@@H]2CCCN2C1=O` [SEQ ID NO: 95] (Biotin-SASRICPWNCKEL-OH; disulfide 6-10), the equilibrium dissociation constant (Kd) at FMC63 IgG is 0.147 nM. For `CC[C@H](C)[C@H](NC(=O)[C@H](CCCNC(=N)N)NC(=O)[C@H](CO)NC(=O)[C@H](C)NC(=O)[C@H](CO)NC(=O)CNC(=O)CNC(=O)CNC(=O)CCCC[C@@H]1SC[C@@H]2NC(=O)N[C@@H]21)C(=O)N[C@H]1CSSC[C@@H](C(=O)N[C@@H](CCCCN)C(=O)N[C@@H](CCC(=O)O)C(=O)N[C@@H](CC(C)C)C(=O)O)NC(=O)[C@H](CC(N)=O)NC(=O)[C@H](Cc2c[nH]c3ccccc23)NC(=O)[C@@H]2CCCN2C1=O` [SEQ ID NO: 96] (Biotin-GGGSASRICPWNCKEL-OH; disulfide 9-13), on FMC63 IgG, the equilibrium dissociation constant (Kd) came to 0.141 nM.

For “Amph-K-C2 (GGGSASRICPWNCKELPSPPRIFGNR; cysteine pairing not given here; also: amphiphile lipid conjugate, site not given here)”, the “proliferation of CAR T cells in vivo (cell violet dilution)” value in the data set with FMC63 CAR T cells is “observed”. Regarding “K-A1 (PRKHSGRICPWNCKELDNPPFIFGNR; Synthetic FMC63 mimotope (A1))”, the “time for which FMC63 scFv labeling is retained after wash” value in the data set on FMC63 scFv is at least 72 h.

With RHCPWNCSLL [Clone A1], the “mimotope binding to FMC63 after DTT” value in the data set with FMC63 is listed as “abolished”. Turning to “RLCPWSAACREL (Synthetic FMC63 Mimotope Mutant) [SEQ ID NO: 52]”, the “mimotope binding to FMC63 of RLCPWSCREL variants” value in the data set with FMC63 IgG antibody is listed as “abolished”. Still for that read-out and setting: then “RLCPWSACREL (Synthetic FMC63 Mimotope Mutant) [SEQ ID NO: 53]”, with “abolished”. With “amph-mimotope (RHCPWNCSLL; SEQ ID NO: 5) (cysteine pairing not given here; also: amphiphilic lipid tail conjugated, site not given here)”, the “CAR-T cell activation measured by IFNγ secretion” value in data set [1] is on record as “significantly activated”. As for “lipo-G0T10-CG (DNA TTTTTTTTTTCG; DNA, backbone and methylation of C not given here; lipid conjugate)”, the “percentage of intact micelles” value in data set [2] came out at 20%. Same read-out and setting: then “lipo-G2T8-CG (DNA GGTTTTTTTTCG; DNA, backbone and methylation of C not given here; lipid conjugate)”, with 36%; and “lipo-G4T6-CG (DNA GGGGTTTTTTCG; DNA, backbone and methylation of C not given here; lipid conjugate)”, with 73%. As to “lipo-G6T4-CG (DNA GGGGGGTTTTCG; DNA, backbone and methylation of C not given here; lipid conjugate)”, in data set [2], the “percentage of intact micelles” value came out at 90%.

With “lipo-G8T2-CG (DNA GGGGGGGGTTCG; DNA, backbone and methylation of C not given here; lipid conjugate)”, in data set [2], the “micelle stability on increasing number of guanines” value is recorded as “did not further enhance micelle stability”. As for “lipo-G10T0-CG (DNA GGGGGGGGGGCG; DNA, backbone and methylation of C not given here; lipid conjugate)”, the “micelle stability on increasing number of guanines” value in data set [2] was “did not further enhance micelle stability”.

Broadly, the Kd is the concentration at which binding is half-saturated.
